Experimental data taken from patent US20260327263A1, “Anti-Bacterial Peptides” (priority 2023, published 2026).
≈ marks a conversion by molar mass, not a printed value. Where a SMILES comes first, the peptide text is derived from it. Where no end group is shown, it is not given here. [ ]: non-standard residue; d: D form. Bip = N[C@@H](Cc1ccc(-c2ccccc2)cc1)C(=O)O; 1Nal = N[C@@H](Cc1cccc2ccccc12)C(=O)O; 2Nal = N[C@@H](Cc1ccc2ccccc2c1)C(=O)O; Aib = CC(C)(N)C(=O)O

Assays:
[1] = system: Pseudomonas aeruginosa (PA); experiment: Broth microdilution anti-bacterial assay (CLSI), Pseudomonas aeruginosa; type: cell-based, Pseudomonas aeruginosa (ATCC 14213); settings: for MIC / MBC: PA; for MIC: overnight, 37° C., ≥99% inhibition; for MBC: ≥99% killing; for anti-bacterial activity (in words): PA and SA
Method: (§1) To evaluate their anti-bacterial potency, broth microdilution method as per the CLSI guidelines 1 was used. […] The anti-bacterial potency of the tested agents is quantified using minimum inhibitory concentration (MIC) and minimum bactericidal concentration (MBC). […] To obtain the MBC data, 1X, 2X and 4× MIC of the peptide variants were plated to obtain the number of viable colonies compared to the original inoculum.
(§2) Pseudomonas aeruginosa (ATCC 14213, PA), and methicillin resistant Staphylococcus aureus (BAA1717-USA 300, SA) were obtained from The American Type Culture Collection (ATCC).
(§3) Examination of the potency of modified short peptides against PA and SA strains was performed by using the broth microdilution protocol from the Clinical and Laboratory Standards Institute (CLSI) guidelines (CLSI 2012) as described. Briefly, five freshly plated bacteria colonies were grown in cation adjusted MH2 broth (BD Biosciences) in a shaker incubator at 37° C., 220 RPM. Cells were grown to an optical density (OD600) of ~0.2 measured using a Microplate Spectrophotometer (Molecular Devices Spectra Max Plus). 100 μL of microbial culture containing ~5×10^5 CFU/mL of bacteria in the respective broths were introduced into each well containing 100 μL of peptides and incubated overnight at 37° C. Next, to check the bactericidal effects, 100 μL from each well was transferred and spread on sterile MH2 agar plates. The plates were incubated overnight at 37° C. and the number of colonies forming units (CFU) were calculated the following day. Readings of bacteria grown in media without any treatments were normalized to 100% as media control. For the mixed infection study, three freshly plated bacteria colonies each from PA, SA and ST plates were grown together in cation adjusted MH2 broth and proceeded as described above.

[2] = system: Staphylococcus aureus (SA); experiment: Broth microdilution anti-bacterial assay (CLSI), Staphylococcus aureus; type: cell-based; settings: SA; for MIC: overnight, 37° C., ≥99% inhibition; for MBC: ≥99% killing
Method: as §1, §2, §3

## KKLLKKWVKLSKKALKLAQLL-NH2 [S20L]
[1]
  MIC: 6.25 µM
  MBC: 12.5 µM
[2]
  MIC: 6.25 µM
  MBC: 12.5 µM

## KKLLKKWVKLKKKALKLAQSL-NH2 [S11K]
[1]
  MIC: 12.5 µM
  MBC: 12.5 µM
[2]
  MIC: 12.5 µM
  MBC: 12.5 µM

## CC(C)C[C@H](NC(=O)[C@H](CO)NC(=O)[C@H](CC(C)C)NC(=O)C(C)(C)NC(=O)[C@H](CC(C)C)NC(=O)[C@H](CCCCN)NC(=O)[C@H](CC(C)C)NC(=O)C(C)(C)NC(=O)[C@H](CCCCN)NC(=O)[C@H](CCCCN)NC(=O)[C@H](CO)NC(=O)[C@H](CC(C)C)NC(=O)[C@H](CCCCN)NC(=O)[C@H](CC(C)C)NC(=O)[C@H](Cc1c[nH]c2ccccc12)NC(=O)[C@H](CCCCN)NC(=O)[C@H](CCCCN)NC(=O)[C@H](CC(C)C)NC(=O)[C@H](CC(C)C)NC(=O)[C@H](CCCCN)NC(=O)[C@@H](N)CCCCN)C(N)=O [V8LQ19LA1418Aib] (H-KKLLKKWLKLSKK[Aib]LKL[Aib]LSL-NH2)
[1]
  MIC: 3.126 µM (≈ 7.75 µg/mL)
  MBC: 3.125 µM (≈ 7.74 µg/mL)
[2]
  MIC: 1.56 µM (≈ 3.87 µg/mL)
  MBC: 1.56 µM (≈ 3.87 µg/mL)

## LKKWVKLSKKALKLAQSL-NH2 [E1AM2 N-3]
[1]
  MIC: 12.5 µM

## KKLLKKLVKLSKKALKLAQSL-NH2 [W7L]
[1]
  anti-bacterial activity (in words): reduced MIC against PA
  MIC: 3.125 µM
  MBC: 3.125 µM
[2]
  MIC: 6.25 µM
  MBC: 6.25 µM

## KKLLKKWVKLSKKLLKLAQSL-NH2 [A14L]
[1]
  MIC: 12.5 µM
  MBC: 12.5 µM
[2]
  MIC: 6.25 µM
  MBC: 6.25 µM

## KKLLKKWVKLSKKALKLAQS-NH2 [E1AM2 C-1]
[1]
  MIC: >25 µM

## LLKKWVKLSKKALKLAQSL-NH2 [E1AM2 N-2]
[1]
  MIC: 25 µM

## CC(C)C[C@H](NC(=O)[C@H](CO)NC(=O)[C@H](CC(C)C)NC(=O)C(C)(C)NC(=O)[C@H](CC(C)C)NC(=O)[C@H](CCCCN)NC(=O)[C@H](CC(C)C)NC(=O)[C@H](C)NC(=O)[C@H](CCCCN)NC(=O)[C@H](CCCCN)NC(=O)[C@H](CO)NC(=O)[C@H](CC(C)C)NC(=O)[C@H](CCCCN)NC(=O)[C@H](CC(C)C)NC(=O)[C@H](Cc1c[nH]c2ccccc12)NC(=O)[C@H](CCCCN)NC(=O)[C@H](CCCCN)NC(=O)[C@H](CC(C)C)NC(=O)[C@H](CC(C)C)NC(=O)[C@H](CCCCN)NC(=O)[C@@H](N)CCCCN)C(N)=O [V8LQ19LA18Aib] (H-KKLLKKWLKLSKKALKL[Aib]LSL-NH2)
[1]
  MIC: 3.125 µM (≈ 7.7 µg/mL)
  MBC: 3.125 µM (≈ 7.7 µg/mL)
[2]
  MIC: 1.58 µM (≈ 3.89 µg/mL)
  MBC: 1.56 µM (≈ 3.84 µg/mL)

## KKLLKKWLKLSKKALKLALS-NH2 [V8LQ19L C-1]
[1]
  anti-bacterial activity (in words): strong potency
  MIC: 3.125 µM
  MBC: 3.125 µM
[2]
  MIC: 3.125 µM
  MBC: 3.125 µM

## KKLLKKWVKLSKKKLKLAQSL-NH2 [A14K]
[1]
  MIC: 12.5 µM
  MBC: 12.5 µM
[2]
  MIC: 12.5 µM
  MBC: 12.5 µM

## CC(C)C[C@H](NC(=O)[C@H](CO)NC(=O)[C@H](CC(C)C)NC(=O)[C@H](C)NC(=O)[C@H](CC(C)C)NC(=O)[C@H](CCCCN)NC(=O)[C@H](CC(C)C)NC(=O)[C@H](C)NC(=O)[C@H](CCCCN)NC(=O)[C@H](CCCCN)NC(=O)[C@H](CO)NC(=O)[C@H](CC(C)C)NC(=O)[C@H](CCCCN)NC(=O)[C@H](CC(C)C)NC(=O)[C@H](Cc1ccc2ccccc2c1)NC(=O)[C@H](CCCCN)NC(=O)[C@H](CCCCN)NC(=O)[C@H](CC(C)C)NC(=O)[C@H](CC(C)C)NC(=O)[C@H](CCCCN)NC(=O)[C@@H](N)CCCCN)C(N)=O [W72NalV8LQ19L] (H-KKLLKK[2Nal]LKLSKKALKLALSL-NH2)
[1]
  MIC: 1.56 µM (≈ 3.84 µg/mL)
  MBC: 1.66 µM (≈ 4.09 µg/mL)
[2]
  MIC: 1.56 µM (≈ 3.84 µg/mL)
  MBC: 1.56 µM (≈ 3.84 µg/mL)

## KKLLKKWVKLSKKALK-NH2 [E1AM2 C-5]
[1]
  MIC: >25 µM

## KKLLKKWVKLSKKALKLKQSL-NH2 [A18K]
[1]
  MIC: 12.5 µM
  MBC: 25 µM
[2]
  MIC: 12.5 µM
  MBC: 12.5 µM

## Ac-KKLLKKWVKLSKKALKLAQSL-NH2 [Ac-E1AM2-NH2]
[1]
  MIC: 12.5 µM
  MBC: 12.5 µM

## KKLLKKWVKLSKKALKL-NH2 [E1AM2 C-4]
[1]
  MIC: >12.5 µM

## KKLLKKWVKLSKKALKLA-NH2 [E1AM2 C-3]
[1]
  MIC: 6.25 µM

## Ac-KKLLKKWVKLSKKALKLAQSL [Ac-E1AM2]
[1]
  MIC: 25 µM
  MBC: 25 µM

## CC(C)C[C@H](NC(=O)[C@H](CO)NC(=O)[C@H](CC(C)C)NC(=O)[C@H](C)NC(=O)[C@H](CC(C)C)NC(=O)[C@H](CCCCN)NC(=O)[C@H](CC(C)C)NC(=O)[C@H](C)NC(=O)[C@H](CCCCN)NC(=O)[C@H](CCCCN)NC(=O)[C@H](CO)NC(=O)[C@H](CC(C)C)NC(=O)[C@H](CCCCN)NC(=O)[C@H](CC(C)C)NC(=O)[C@H](Cc1ccc(-c2ccccc2)cc1)NC(=O)[C@H](CCCCN)NC(=O)[C@H](CCCCN)NC(=O)[C@H](CC(C)C)NC(=O)[C@H](CC(C)C)NC(=O)[C@H](CCCCN)NC(=O)[C@@H](N)CCCCN)C(N)=O [W7BipV8LQ19L] (H-KKLLKK[Bip]LKLSKKALKLALSL-NH2)
[1]
  MIC: 3.325 µM (≈ 8.27 µg/mL)
  MBC: 3.125 µM (≈ 7.77 µg/mL)
[2]
  MIC: 1.58 µM (≈ 3.93 µg/mL)
  MBC: 1.56 µM (≈ 3.88 µg/mL)

## KKLLKKWLKLSKKALKLA-NH2 [V8LQ19L C-3]
[1]
  anti-bacterial activity (in words): strong potency
  MIC: >6.25 µM
  MBC: >6.25 µM
[2]
  MIC: >6.25 µM
  MBC: >8.26 µM

## KKLLKKWVKLSKKALKLAKSL-NH2 [Q19K]
[1]
  MIC: 12.5 µM
  MBC: 25 µM
[2]
  MIC: 12.5 µM
  MBC: 25 µM

## WVKLSKKALKLAQSL-NH2 [E1AM2 N-6]
[1]
  MIC: >25 µM

## CC(C)C[C@@H](NC(=O)[C@@H](CO)NC(=O)[C@@H](CC(C)C)NC(=O)[C@@H](C)NC(=O)[C@@H](CC(C)C)NC(=O)[C@@H](CCCCN)NC(=O)[C@@H](CC(C)C)NC(=O)[C@@H](C)NC(=O)[C@@H](CCCCN)NC(=O)[C@@H](CCCCN)NC(=O)[C@@H](CO)NC(=O)[C@@H](CC(C)C)NC(=O)[C@@H](CCCCN)NC(=O)[C@@H](CC(C)C)NC(=O)[C@@H](Cc1c[nH]c2ccccc12)NC(=O)[C@@H](CCCCN)NC(=O)[C@@H](CCCCN)NC(=O)[C@@H](CC(C)C)NC(=O)[C@@H](CC(C)C)NC(=O)[C@@H](CCCCN)NC(=O)[C@H](N)CCCCN)C(N)=O [D-V8LQ19L] (H-[dK][dK][dL][dL][dK][dK][dW][dL][dK][dL][dS][dK][dK][dA][dL][dK][dL][dA][dL][dS][dL]-NH2)
[1]
  anti-bacterial activity (in words): retains the strong anti-bacterial effects
  MIC: 3.125 µM (≈ 7.66 µg/mL)
  MBC: 3.125 µM (≈ 7.66 µg/mL)
[2]
  MIC: 3.125 µM (≈ 7.66 µg/mL)
  MBC: 3.125 µM (≈ 7.66 µg/mL)

## KKLLKKWVKLLKKALKLAQSL-NH2 [S11L]
[1]
  MIC: 12.5 µM
  MBC: 12.5 µM
[2]
  MIC: 6.25 µM
  MBC: 6.25 µM

## KKLLKKWVKLSKKALKLAQ-NH2 [E1AM2 C-2]
[1]
  MIC: 25 µM

## KKLLKKWKKLSKKALKLAQSL-NH2 [V8K]
[1]
  MIC: 3.125 µM
  MBC: 3.126 µM
[2]
  MIC: 12.5 µM
  MBC: 12.5 µM

## KKLLKKKVKLSKKALKLAQSL-NH2 [W7K]
[1]
  MIC: 12.5 µM
  MBC: 12.5 µM
[2]
  MIC: 12.5 µM
  MBC: 25 µM

## KKLLKKWVKLSKKALKLLQSL-NH2 [A18L]
[1]
  MIC: 6.25 µM
  MBC: 6.25 µM
[2]
  MIC: 3.125 µM
  MBC: 3.125 µM

## KKLLKKWVKLSKKALKLAQKL-NH2 [S20K]
[1]
  MIC: 25 µM
  MBC: 25 µM
[2]
  MIC: 25 µM
  MBC: 25 µM

## KWVKLSKKALKLAQSL-NH2 [E1AM2 N-5]
[1]
  MIC: >25 µM

## KKWVKLSKKALKLAQSL-NH2 [E1AM2 N-4]
[1]
  MIC: >25 µM

## CC(C)C[C@H](NC(=O)[C@H](CO)NC(=O)[C@H](CC(C)C)NC(=O)[C@H](C)NC(=O)[C@H](CC(C)C)NC(=O)[C@H](CCCCN)NC(=O)[C@H](CC(C)C)NC(=O)[C@H](C)NC(=O)[C@H](CCCCN)NC(=O)[C@H](CCCCN)NC(=O)[C@H](CO)NC(=O)[C@H](CC(C)C)NC(=O)[C@H](CCCCN)NC(=O)[C@H](CC(C)C)NC(=O)[C@H](Cc1cccc2ccccc12)NC(=O)[C@H](CCCCN)NC(=O)[C@H](CCCCN)NC(=O)[C@H](CC(C)C)NC(=O)[C@H](CC(C)C)NC(=O)[C@H](CCCCN)NC(=O)[C@@H](N)CCCCN)C(N)=O [W71NalV8LQ19L] (H-KKLLKK[1Nal]LKLSKKALKLALSL-NH2)
[1]
  MIC: 3.125 µM (≈ 7.69 µg/mL)
  MBC: 3.125 µM (≈ 7.69 µg/mL)
[2]
  MIC: 1.56 µM (≈ 3.84 µg/mL)
  MBC: 1.56 µM (≈ 3.84 µg/mL)

## KLLKKWVKLSKKALKLAQSL-NH2 [E1AM2 N-1]
[1]
  MIC: 12.5 µM

## KKLLKKWVKLSKKAL-NH2 [E1AM2 C-6]
[1]
  MIC: >25 µM
